Data: the NIST ThermoML archive (doi:10.1016/j.tca.2006.10.025)
Numbers after ± are expanded uncertainties.

Experiments:
[1] = molar heat capacity at constant pressure; details: 101.33 kPa, Liquid, Small sample (50 mg) DSC
[2] = 303.15 K; 101.33 kPa; Liquid; Vibrating tube method
[3] = molar heat capacity at constant pressure; xn = mol fraction of the nth substance listed; details: 303.15 K, 101 kPa, Liquid, Small sample (50 mg) DSC
[4] = excess molar enthalpy (molar enthalpy of mixing); xn = mol fraction of the nth substance listed; details: 303.15 K, 101 kPa, Liquid, Flow calorimetry

CCCCCCO [hexan-1-ol]
molar heat capacity at constant pressure ([1]; 288.15 K): 231.6 ± 3.6 J/K/mol | molar heat capacity at constant pressure ([1]; 293.15 K): 237.5 ± 3.7 J/K/mol | molar heat capacity at constant pressure ([1]; 298.15 K): 241.3 ± 3.7 J/K/mol | molar heat capacity at constant pressure ([1]; 303.15 K): 246 ± 3.8 J/K/mol | molar heat capacity at constant pressure ([1]; 308.15 K): 251 ± 3.9 J/K/mol | molar heat capacity at constant pressure ([1]; 313.15 K): 256.2 ± 4 J/K/mol | molar heat capacity at constant pressure ([1]; 318.15 K): 262.5 ± 4.1 J/K/mol | molar heat capacity at constant pressure ([1]; 323.15 K): 268.9 ± 4.2 J/K/mol | mass density [2]: 811.39 ± 0.31 kg/m3

CCCCO [butan-1-ol]
molar heat capacity at constant pressure ([1]; 288.15 K): 166.2 ± 2.6 J/K/mol | molar heat capacity at constant pressure ([1]; 293.15 K): 171.8 ± 2.7 J/K/mol | molar heat capacity at constant pressure ([1]; 298.15 K): 175.3 ± 2.7 J/K/mol | molar heat capacity at constant pressure ([1]; 303.15 K): 178.9 ± 2.8 J/K/mol | molar heat capacity at constant pressure ([1]; 308.15 K): 182.8 ± 2.8 J/K/mol | molar heat capacity at constant pressure ([1]; 313.15 K): 186.6 ± 2.9 J/K/mol | molar heat capacity at constant pressure ([1]; 318.15 K): 190.8 ± 3 J/K/mol | molar heat capacity at constant pressure ([1]; 323.15 K): 194.7 ± 3 J/K/mol | mass density [2]: 801.98 ± 0.21 kg/m3

CCCCCCCCCCO [decan-1-ol]
molar heat capacity at constant pressure ([1]; 288.15 K): 360.1 ± 5.6 J/K/mol | molar heat capacity at constant pressure ([1]; 293.15 K): 368.5 ± 5.7 J/K/mol | molar heat capacity at constant pressure ([1]; 298.15 K): 373.9 ± 5.8 J/K/mol | molar heat capacity at constant pressure ([1]; 303.15 K): 379.3 ± 5.9 J/K/mol | molar heat capacity at constant pressure ([1]; 308.15 K): 385.3 ± 6 J/K/mol | molar heat capacity at constant pressure ([1]; 313.15 K): 390.6 ± 6.1 J/K/mol | molar heat capacity at constant pressure ([1]; 318.15 K): 395.9 ± 6.1 J/K/mol | molar heat capacity at constant pressure ([1]; 323.15 K): 401.3 ± 6.2 J/K/mol | mass density [2]: 822.95 ± 0.31 kg/m3

C[S+](C)[O-] [dimethyl sulfoxide] + CCCCO
molar heat capacity at constant pressure ([3]; x1 = 0.0874): 175.2 ± 2.7 J/K/mol | molar heat capacity at constant pressure ([3]; x1 = 0.1288): 172.3 ± 2.7 J/K/mol | molar heat capacity at constant pressure ([3]; x1 = 0.2324): 167 ± 2.6 J/K/mol | molar heat capacity at constant pressure ([3]; x1 = 0.364): 161.2 ± 2.5 J/K/mol | molar heat capacity at constant pressure ([3]; x1 = 0.4541): 158 ± 2.4 J/K/mol | molar heat capacity at constant pressure ([3]; x1 = 0.5775): 155.4 ± 2.4 J/K/mol | molar heat capacity at constant pressure ([3]; x1 = 0.6568): 152.7 ± 2.4 J/K/mol | molar heat capacity at constant pressure ([3]; x1 = 0.7207): 151.6 ± 2.3 J/K/mol | molar heat capacity at constant pressure ([3]; x1 = 0.7577): 150.8 ± 2.3 J/K/mol | molar heat capacity at constant pressure ([3]; x1 = 0.8537): 150.3 ± 2.3 J/K/mol | molar heat capacity at constant pressure ([3]; x1 = 0.919): 150 ± 2.3 J/K/mol | molar heat capacity at constant pressure ([3]; x1 = 0.9542): 151.5 ± 2.3 J/K/mol | excess molar enthalpy ([4]; x1 = 0.051): 0.0715 ± 0.00143 kcal/mol | excess molar enthalpy ([4]; x1 = 0.097): 0.124 ± 0.00191 kcal/mol | excess molar enthalpy ([4]; x1 = 0.1385): 0.164 ± 0.00215 kcal/mol | excess molar enthalpy ([4]; x1 = 0.1769): 0.189 ± 0.00239 kcal/mol | excess molar enthalpy ([4]; x1 = 0.2438): 0.221 ± 0.00287 kcal/mol | excess molar enthalpy ([4]; x1 = 0.3007): 0.236 ± 0.00311 kcal/mol | excess molar enthalpy ([4]; x1 = 0.3921): 0.255 ± 0.00335 kcal/mol | excess molar enthalpy ([4]; x1 = 0.4622): 0.254 ± 0.00311 kcal/mol | excess molar enthalpy ([4]; x1 = 0.5633): 0.245 ± 0.00311 kcal/mol | excess molar enthalpy ([4]; x1 = 0.6594): 0.223 ± 0.00287 kcal/mol | excess molar enthalpy ([4]; x1 = 0.7207): 0.201 ± 0.00263 kcal/mol | excess molar enthalpy ([4]; x1 = 0.7947): 0.171 ± 0.00215 kcal/mol | excess molar enthalpy ([4]; x1 = 0.8377): 0.144 ± 0.00191 kcal/mol | excess molar enthalpy ([4]; x1 = 0.8856): 0.112 ± 0.00167 kcal/mol | excess molar enthalpy ([4]; x1 = 0.9117): 0.0901 ± 0.00143 kcal/mol | excess molar enthalpy ([4]; x1 = 0.9393): 0.0652 ± 0.00143 kcal/mol | excess molar enthalpy ([4]; x1 = 0.9687): 0.0356 ± 0.0012 kcal/mol

CCCCCCCCO [octan-1-ol] + C[S+](C)[O-]
molar heat capacity at constant pressure ([3]; x2 = 0.0953): 296.5 ± 4.6 J/K/mol | molar heat capacity at constant pressure ([3]; x2 = 0.1847): 284.2 ± 4.4 J/K/mol | molar heat capacity at constant pressure ([3]; x2 = 0.3137): 264.7 ± 4.1 J/K/mol | molar heat capacity at constant pressure ([3]; x2 = 0.3478): 256.2 ± 4 J/K/mol | molar heat capacity at constant pressure ([3]; x2 = 0.4629): 241.9 ± 3.7 J/K/mol | molar heat capacity at constant pressure ([3]; x2 = 0.5855): 221.6 ± 3.4 J/K/mol | molar heat capacity at constant pressure ([3]; x2 = 0.6299): 215.1 ± 3.3 J/K/mol | molar heat capacity at constant pressure ([3]; x2 = 0.7302): 200.6 ± 3.1 J/K/mol | molar heat capacity at constant pressure ([3]; x2 = 0.7656): 193.2 ± 3 J/K/mol | molar heat capacity at constant pressure ([3]; x2 = 0.842): 182.1 ± 2.8 J/K/mol | molar heat capacity at constant pressure ([3]; x2 = 0.8956): 173.1 ± 2.7 J/K/mol | molar heat capacity at constant pressure ([3]; x2 = 0.9603): 162.4 ± 2.5 J/K/mol | excess molar enthalpy ([4]; x2 = 0.0847): 0.112 ± 0.00191 kcal/mol | excess molar enthalpy ([4]; x2 = 0.1562): 0.195 ± 0.00263 kcal/mol | excess molar enthalpy ([4]; x2 = 0.2173): 0.257 ± 0.00335 kcal/mol | excess molar enthalpy ([4]; x2 = 0.2702): 0.29 ± 0.00359 kcal/mol | excess molar enthalpy ([4]; x2 = 0.3571): 0.331 ± 0.00406 kcal/mol | excess molar enthalpy ([4]; x2 = 0.4254): 0.35 ± 0.0043 kcal/mol | excess molar enthalpy ([4]; x2 = 0.5262): 0.354 ± 0.00454 kcal/mol | excess molar enthalpy ([4]; x2 = 0.5968): 0.351 ± 0.0043 kcal/mol | excess molar enthalpy ([4]; x2 = 0.6896): 0.332 ± 0.00406 kcal/mol | excess molar enthalpy ([4]; x2 = 0.7692): 0.304 ± 0.00382 kcal/mol | excess molar enthalpy ([4]; x2 = 0.8163): 0.273 ± 0.00359 kcal/mol | excess molar enthalpy ([4]; x2 = 0.8696): 0.228 ± 0.00311 kcal/mol | excess molar enthalpy ([4]; x2 = 0.8988): 0.195 ± 0.00287 kcal/mol | excess molar enthalpy ([4]; x2 = 0.9302): 0.15 ± 0.00239 kcal/mol | excess molar enthalpy ([4]; x2 = 0.9467): 0.121 ± 0.00239 kcal/mol | excess molar enthalpy ([4]; x2 = 0.9638): 0.0868 ± 0.00239 kcal/mol | excess molar enthalpy ([4]; x2 = 0.9816): 0.0468 ± 0.00239 kcal/mol

CCCO [propan-1-ol]
molar heat capacity at constant pressure ([1]; 288.15 K): 139 ± 2.2 J/K/mol | molar heat capacity at constant pressure ([1]; 293.15 K): 142.3 ± 2.2 J/K/mol | molar heat capacity at constant pressure ([1]; 298.15 K): 144.9 ± 2.2 J/K/mol | molar heat capacity at constant pressure ([1]; 303.15 K): 148.3 ± 2.3 J/K/mol | molar heat capacity at constant pressure ([1]; 308.15 K): 151 ± 2.3 J/K/mol | molar heat capacity at constant pressure ([1]; 313.15 K): 153.7 ± 2.4 J/K/mol | molar heat capacity at constant pressure ([1]; 318.15 K): 157.1 ± 2.4 J/K/mol | molar heat capacity at constant pressure ([1]; 323.15 K): 160.1 ± 2.5 J/K/mol | mass density [2]: 795.48 ± 0.15 kg/m3

CCCCCCCCO [octan-1-ol]
molar heat capacity at constant pressure ([1]; 288.15 K): 294.2 ± 4.6 J/K/mol | molar heat capacity at constant pressure ([1]; 293.15 K): 300.3 ± 4.7 J/K/mol | molar heat capacity at constant pressure ([1]; 298.15 K): 304.4 ± 4.7 J/K/mol | molar heat capacity at constant pressure ([1]; 303.15 K): 309.2 ± 4.8 J/K/mol | molar heat capacity at constant pressure ([1]; 308.15 K): 314.4 ± 4.9 J/K/mol | molar heat capacity at constant pressure ([1]; 313.15 K): 319.5 ± 5 J/K/mol | molar heat capacity at constant pressure ([1]; 318.15 K): 326.2 ± 5.1 J/K/mol | molar heat capacity at constant pressure ([1]; 323.15 K): 332.7 ± 5.2 J/K/mol | mass density [2]: 818.24 ± 0.18 kg/m3

C[S+](C)[O-] [dimethyl sulfoxide] + CCCO
molar heat capacity at constant pressure ([3]; x1 = 0.0514): 146.2 ± 2.3 J/K/mol | molar heat capacity at constant pressure ([3]; x1 = 0.1127): 144 ± 2.2 J/K/mol | molar heat capacity at constant pressure ([3]; x1 = 0.2114): 141.8 ± 2.2 J/K/mol | molar heat capacity at constant pressure ([3]; x1 = 0.3163): 142.6 ± 2.2 J/K/mol | molar heat capacity at constant pressure ([3]; x1 = 0.418): 139.9 ± 2.2 J/K/mol | molar heat capacity at constant pressure ([3]; x1 = 0.5029): 140.6 ± 2.2 J/K/mol | molar heat capacity at constant pressure ([3]; x1 = 0.6216): 140.7 ± 2.2 J/K/mol | molar heat capacity at constant pressure ([3]; x1 = 0.7068): 141.6 ± 2.2 J/K/mol | molar heat capacity at constant pressure ([3]; x1 = 0.7975): 144.2 ± 2.2 J/K/mol | molar heat capacity at constant pressure ([3]; x1 = 0.8537): 145.6 ± 2.3 J/K/mol | molar heat capacity at constant pressure ([3]; x1 = 0.8994): 146.5 ± 2.3 J/K/mol | molar heat capacity at constant pressure ([3]; x1 = 0.9429): 147.6 ± 2.3 J/K/mol | excess molar enthalpy ([4]; x1 = 0.0421): 0.0449 ± 0.0012 kcal/mol | excess molar enthalpy ([4]; x1 = 0.0808): 0.0803 ± 0.00143 kcal/mol | excess molar enthalpy ([4]; x1 = 0.1165): 0.109 ± 0.00167 kcal/mol | excess molar enthalpy ([4]; x1 = 0.1495): 0.134 ± 0.00191 kcal/mol | excess molar enthalpy ([4]; x1 = 0.2086): 0.163 ± 0.00215 kcal/mol | excess molar enthalpy ([4]; x1 = 0.2601): 0.184 ± 0.00239 kcal/mol | excess molar enthalpy ([4]; x1 = 0.3452): 0.204 ± 0.00263 kcal/mol | excess molar enthalpy ([4]; x1 = 0.4127): 0.21 ± 0.00263 kcal/mol | excess molar enthalpy ([4]; x1 = 0.5133): 0.205 ± 0.00263 kcal/mol | excess molar enthalpy ([4]; x1 = 0.6128): 0.189 ± 0.00239 kcal/mol | excess molar enthalpy ([4]; x1 = 0.6783): 0.171 ± 0.00215 kcal/mol | excess molar enthalpy ([4]; x1 = 0.7598): 0.136 ± 0.00191 kcal/mol | excess molar enthalpy ([4]; x1 = 0.8084): 0.118 ± 0.00167 kcal/mol | excess molar enthalpy ([4]; x1 = 0.8634): 0.0884 ± 0.0012 kcal/mol | excess molar enthalpy ([4]; x1 = 0.894): 0.0722 ± 0.0012 kcal/mol | excess molar enthalpy ([4]; x1 = 0.9268): 0.0521 ± 0.000956 kcal/mol | excess molar enthalpy ([4]; x1 = 0.962): 0.0282 ± 0.000717 kcal/mol
